Data published in patent publication US11214594B2, “Antimicrobial peptide having synergistic antibacterial effect with antibiotics on multidrug resistant bacteria, and use thereof” (priority 2016, dated 2022).
In brackets after ≈: the same amount, converted by molar mass. Where a SMILES comes first, the peptide text is derived from it.

Experiments:
MRSA 3126 = assay type: cell-based, Staphylococcus aureus; conditions: 3126
Description: (§1) For the antibacterial activity, a minimal inhibitory concentration (MIC) of a peptide in which fungus bodies were not split in an MH medium with sufficient nutrients was measured.
(§2) Specifically, the strains described in the following [Table 2] were purchased and diluted with an MH medium such that the number of bacteria was 2×10^6 colony-forming units (CFUs), 100 μl of each of the diluted strains was aliquoted into a 96-well microtiter plate, and then 100 μl of a peptide solution diluted with the MH medium (solution diluted stepwise at 2: 1) was added to each well.

MRSA 3114 = assay type: cell-based, Staphylococcus aureus; conditions: 3114
Description: as §1, §2

MDRAB 12035 = test: MIC of antibiotic during combined treatment with antimicrobial peptide; assay type: cell-based, Acinetobacter baumannii
Description: (§3) Specifically, the strains described in [Table 2] were prepared and diluted with an MH medium such that the number of bacteria was 2×10^6 colony-forming units (CFUs) per 1 ml, 100 μl of the diluted strains was each aliquoted into a 96-well microtiter plate, and then 50 μl of a peptide solution diluted with the MH medium from the MIC value (solution diluted stepwise at 2: 1) was added to each well. Thereafter, the MIC value of each mixed solution was determined by diluting the antibiotic solution with the MH medium, adding 50 μl of the diluted solution to each well, and performing an experiment even under a reversed condition.

MDREC 1238 = assay type: cell-based, Escherichia coli
Description: as §1, §2

B. subtilis = test: microbe, parasite or virus in culture; assay type: cell-based, Bacillus subtilis
How it was run: (§4)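 Broth microdilution in MH medium: bacterial strains diluted to 2×10^6 CFU were mixed with equal volumes of peptide serially diluted twofold in MH medium.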

MDRST 8007 = test: Minimal inhibitory concentration (MIC), single agent; assay type: cell-based, Salmonella typhimurium; conditions: agent alone
Description: as §1, §2

A. baumannii = test: MIC of antibiotic during combined treatment with antimicrobial peptide; assay type: cell-based, Acinetobacter baumannii; conditions: for Antibiotic MIC, Erythromycin / Antibiotic MIC, Linezolid / Antibiotic MIC, Vancomycin: A. baumannii
Description: Thereafter, the MIC value of each mixed solution was determined by diluting the antibiotic solution with the MH medium, adding 50 μl of the diluted solution to each well, and performing an experiment even under a reversed condition.

MDREC 1229 [1] = test: as above; assay type: cell-based, Escherichia coli
Description: as §3

S. aureus = test: microbe, parasite or virus in culture; assay type: cell-based, Staphylococcus aureus
How it was run: as §4

P. aeruginosa = test: microbe, parasite or virus in culture; assay type: cell-based, Pseudomonas aeruginosa
How it was run: as §4

MDRPA 2002 = assay type: cell-based, Pseudomonas aeruginosa
Description: as §1, §2

MDRPA 2003 = assay type: cell-based, Pseudomonas aeruginosa
Description: as §1, §2

MDREC 1229 [2] = test: microbe, parasite or virus in culture; assay type: cell-based, Escherichia coli
How it was run: as §4

E. coli [3] = test: microbe, parasite or virus in culture; assay type: cell-based, Escherichia coli; conditions: 16 h
How it was run: as §4

S. epidermidis = test: microbe, parasite or virus in culture; assay type: cell-based, Staphylococcus epidermidis
How it was run: as §4

E. coli [4] = test: MIC of antibiotic during combined treatment with antimicrobial peptide; assay type: cell-based, Escherichia coli; conditions: for Antibiotic MIC, Erythromycin / Antibiotic MIC, Linezolid / Antibiotic MIC, Vancomycin: E. coli
How it was run: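 Antibiotic diluted in MH medium, dispensed per well with peptide; setup repeated with roles reversed; MIC read per combination.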

[5] = peptide treatment concentration 1 μg/ml
[6] = peptide treatment concentration 2 μg/ml
[7] = peptide treatment concentration 4 μg/ml
[8] = peptide treatment concentration 6 μg/ml
[9] = peptide treatment concentration 8 μg/ml
[10] = peptide treatment concentration 16 μg/ml
[11] = peptide treatment concentration 32 μg/ml
[12] = peptide treatment concentration 64 μg/ml
[13] = combined with peptide at 1 μg/ml
[14] = combined with peptide at 2 μg/ml
[15] = combined with peptide at 4 μg/ml
[16] = combined with peptide at 6 μg/ml
[17] = combined with peptide at 8 μg/ml
[18] = combined with peptide at 16 μg/ml
[19] = combined with peptide at 32 μg/ml
[20] = combined with peptide at 64 μg/ml

## CC[C@H](C)[C@H](NC(=O)[C@H](CCCCN)NC(=O)[C@H](Cc1c[nH]c2ccccc12)NC(=O)[C@@H](N)CCCNC(=N)N)C(=O)N[C@@H](Cc1ccccc1)C(=O)N[C@@H](CCCCN)C(=O)N[C@@H](CCCCN)C(=O)N[C@H](C(=O)N1CCC[C@H]1C(=O)N[C@@H](CCCCN)C(=O)N[C@@H](Cc1ccccc1)C(=O)N[C@@H](CC(C)C)C(=O)N[C@@H](Cc1c[nH]cn1)C(=O)N[C@@H](CO)C(=O)N[C@@H](C)C(=O)N[C@@H](CCCCN)C(=O)N[C@@H](CCCCN)C(=O)N[C@@H](Cc1c[nH]c2ccccc12)C(N)=O)[C@@H](C)CC [PapMA-2, RWK IFK KIP KFL HSA KKW-NH2] (H-RWKIFKKIPKFLHSAKKW-NH2; N-terminus assumed)
MRSA 3126
  Minimal inhibitory concentration MIC: >128 µg/mL
MRSA 3114
  Minimal inhibitory concentration MIC: >128 µg/mL
MDRAB 12035; [5]
  Erythromycin MIC during combined treatment with peptide: 32 µg/mL
  Linezolid MIC during combined treatment with peptide: >128 µg/mL
  Vancomycin MIC during combined treatment with peptide: >128 µg/mL
MDRAB 12035; [6]
  Erythromycin MIC during combined treatment with peptide: 16 µg/mL
  Linezolid MIC during combined treatment with peptide: 64 µg/mL
  Vancomycin MIC during combined treatment with peptide: >128 µg/mL
MDRAB 12035; [7]
  Erythromycin MIC during combined treatment with peptide: 4 µg/mL
  Linezolid MIC during combined treatment with peptide: 32 µg/mL
  Vancomycin MIC during combined treatment with peptide: 128 µg/mL
MDRAB 12035; [8]
  Erythromycin MIC during combined treatment with peptide: 2 µg/mL
  Linezolid MIC during combined treatment with peptide: 32 µg/mL
  Vancomycin MIC during combined treatment with peptide: 32 µg/mL
MDRAB 12035; [9]
  Erythromycin MIC during combined treatment with peptide: 0.25 µg/mL
  Linezolid MIC during combined treatment with peptide: 8 µg/mL
  Vancomycin MIC during combined treatment with peptide: 16 µg/mL
MDRAB 12035; [10]
  Erythromycin MIC during combined treatment with peptide: 0 µg/mL
  Linezolid MIC during combined treatment with peptide: 0 µg/mL
  Vancomycin MIC during combined treatment with peptide: 0 µg/mL
MDRAB 12035; [11]
  Erythromycin MIC during combined treatment with peptide: 0 µg/mL
  Linezolid MIC during combined treatment with peptide: 0 µg/mL
  Vancomycin MIC during combined treatment with peptide: 0 µg/mL
MDRAB 12035; [12]
  Erythromycin MIC during combined treatment with peptide: 0 µg/mL
  Linezolid MIC during combined treatment with peptide: 0 µg/mL
  Vancomycin MIC during combined treatment with peptide: 0 µg/mL
MDREC 1238
  Minimal inhibitory concentration MIC: 64 µg/mL (≈ 27.3 µM)
B. subtilis
  Minimal inhibitory concentration MIC: >128 µg/mL
MDRST 8007
  Minimal inhibitory concentration MIC: 32 µg/mL (≈ 13.7 µM)
A. baumannii; A. baumannii and MDRAB 12035
  Synergistic effect of antibacterial activity with existing antibiotics compared with PapMA-1: higher level than the PapMA-1 peptide
A. baumannii; [13]
  Antibiotic MIC, Erythromycin: 16 µg/mL
  Antibiotic MIC, Linezolid: >128 µg/mL
  Antibiotic MIC, Vancomycin: >128 µg/mL
A. baumannii; [14]
  Antibiotic MIC, Erythromycin: 16 µg/mL
  Antibiotic MIC, Linezolid: 64 µg/mL
  Antibiotic MIC, Vancomycin: 128 µg/mL
A. baumannii; [15]
  Antibiotic MIC, Erythromycin: 8 µg/mL
  Antibiotic MIC, Linezolid: 32 µg/mL
  Antibiotic MIC, Vancomycin: 32 µg/mL
A. baumannii; [16]
  Antibiotic MIC, Erythromycin: 1 µg/mL
  Antibiotic MIC, Linezolid: 16 µg/mL
  Antibiotic MIC, Vancomycin: 16 µg/mL
A. baumannii; [17]
  Antibiotic MIC, Erythromycin: 0.125 µg/mL
  Antibiotic MIC, Linezolid: 8 µg/mL
  Antibiotic MIC, Vancomycin: 8 µg/mL
A. baumannii; [18]
  Antibiotic MIC, Erythromycin: 0 µg/mL
  Antibiotic MIC, Linezolid: 0 µg/mL
  Antibiotic MIC, Vancomycin: 0 µg/mL
A. baumannii; [19]
  Antibiotic MIC, Erythromycin: 0 µg/mL
  Antibiotic MIC, Linezolid: 0 µg/mL
  Antibiotic MIC, Vancomycin: 0 µg/mL
A. baumannii; [20]
  Antibiotic MIC, Erythromycin: 0 µg/mL
  Antibiotic MIC, Linezolid: 0 µg/mL
  Antibiotic MIC, Vancomycin: 0 µg/mL
MDREC 1229 [1]; [5]
  Antibiotic MIC, Erythromycin: 64 µg/mL
  Antibiotic MIC, Linezolid: >128 µg/mL
  Antibiotic MIC, Vancomycin: >128 µg/mL
MDREC 1229 [1]; [6]
  Antibiotic MIC, Erythromycin: 32 µg/mL
  Antibiotic MIC, Linezolid: 64 µg/mL
  Antibiotic MIC, Vancomycin: >128 µg/mL
MDREC 1229 [1]; [7]
  Antibiotic MIC, Erythromycin: 16 µg/mL
  Antibiotic MIC, Linezolid: 32 µg/mL
  Antibiotic MIC, Vancomycin: 128 µg/mL
MDREC 1229 [1]; [8]
  Antibiotic MIC, Erythromycin: 8 µg/mL
  Antibiotic MIC, Linezolid: 32 µg/mL
  Antibiotic MIC, Vancomycin: 128 µg/mL
MDREC 1229 [1]; [9]
  Antibiotic MIC, Erythromycin: 2 µg/mL
  Antibiotic MIC, Linezolid: 16 µg/mL
  Antibiotic MIC, Vancomycin: 64 µg/mL
MDREC 1229 [1]; [10]
  Antibiotic MIC, Erythromycin: 0.5 µg/mL
  Antibiotic MIC, Linezolid: 8 µg/mL
  Antibiotic MIC, Vancomycin: 16 µg/mL
MDREC 1229 [1]; [11]
  Antibiotic MIC, Erythromycin: 0.125 µg/mL
  Antibiotic MIC, Linezolid: 4 µg/mL
  Antibiotic MIC, Vancomycin: 8 µg/mL
MDREC 1229 [1]; [12]
  Antibiotic MIC, Erythromycin: 0 µg/mL
  Antibiotic MIC, Linezolid: 0 µg/mL
  Antibiotic MIC, Vancomycin: 0 µg/mL
S. aureus
  Minimal inhibitory concentration MIC: >128 µg/mL
P. aeruginosa
  Minimal inhibitory concentration MIC: 16 µg/mL (≈ 6.83 µM)
MDRPA 2002
  Minimal inhibitory concentration MIC: 16 µg/mL (≈ 6.83 µM)
MDRPA 2003
  Minimal inhibitory concentration MIC: 16 µg/mL (≈ 6.83 µM)
MDREC 1229 [2]
  Minimal inhibitory concentration MIC: 64 µg/mL (≈ 27.3 µM)
E. coli [3]
  Minimal inhibitory concentration MIC: 64 µg/mL (≈ 27.3 µM)
S. epidermidis
  Minimal inhibitory concentration MIC: >128 µg/mL
E. coli [4]; E. coli and MDREC1229
  Synergistic effect of antibacterial activity with existing antibiotics compared with PapMA-1: higher level than the PapMA-1 peptide
E. coli [4]; erythromycin combined with peptide at 1 μg/ml
  Antibiotic MIC, Erythromycin: 64 µg/mL
E. coli [4]; erythromycin combined with peptide at 2 μg/ml
  Antibiotic MIC, Erythromycin: 32 µg/mL
E. coli [4]; erythromycin combined with peptide at 4 μg/ml
  Antibiotic MIC, Erythromycin: 16 µg/mL
E. coli [4]; erythromycin combined with peptide at 6 μg/ml
  Antibiotic MIC, Erythromycin: 2 µg/mL
E. coli [4]; erythromycin combined with peptide at 8 μg/ml
  Antibiotic MIC, Erythromycin: 0.5 µg/mL
E. coli [4]; erythromycin combined with peptide at 16 μg/ml
  Antibiotic MIC, Erythromycin: 0.25 µg/mL
E. coli [4]; erythromycin combined with peptide at 32 μg/ml
  Antibiotic MIC, Erythromycin: 0.125 µg/mL
E. coli [4]; erythromycin combined with peptide at 64 μg/ml
  Antibiotic MIC, Erythromycin: 0 µg/mL
E. coli [4]; linezolid combined with peptide at 1 μg/ml
  Antibiotic MIC, Linezolid: 128 µg/mL
E. coli [4]; linezolid combined with peptide at 2 μg/ml
  Antibiotic MIC, Linezolid: 64 µg/mL
E. coli [4]; linezolid combined with peptide at 4 μg/ml
  Antibiotic MIC, Linezolid: 16 µg/mL
E. coli [4]; linezolid combined with peptide at 6 μg/ml
  Antibiotic MIC, Linezolid: 16 µg/mL
E. coli [4]; linezolid combined with peptide at 8 μg/ml
  Antibiotic MIC, Linezolid: 8 µg/mL
E. coli [4]; linezolid combined with peptide at 16 μg/ml
  Antibiotic MIC, Linezolid: 8 µg/mL
E. coli [4]; linezolid combined with peptide at 32 μg/ml
  Antibiotic MIC, Linezolid: 4 µg/mL
E. coli [4]; linezolid combined with peptide at 64 μg/ml
  Antibiotic MIC, Linezolid: 0 µg/mL
E. coli [4]; vancomycin combined with peptide at 1 μg/ml
  Antibiotic MIC, Vancomycin: >128 µg/mL
E. coli [4]; vancomycin combined with peptide at 2 μg/ml
  Antibiotic MIC, Vancomycin: >128 µg/mL
E. coli [4]; vancomycin combined with peptide at 4 μg/ml
  Antibiotic MIC, Vancomycin: >128 µg/mL
E. coli [4]; vancomycin combined with peptide at 6 μg/ml
  Antibiotic MIC, Vancomycin: 64 µg/mL
E. coli [4]; vancomycin combined with peptide at 8 μg/ml
  Antibiotic MIC, Vancomycin: 32 µg/mL
E. coli [4]; vancomycin combined with peptide at 16 μg/ml
  Antibiotic MIC, Vancomycin: 8 µg/mL
E. coli [4]; vancomycin combined with peptide at 32 μg/ml
  Antibiotic MIC, Vancomycin: 4 µg/mL
E. coli [4]; vancomycin combined with peptide at 64 μg/ml
  Antibiotic MIC, Vancomycin: 0 µg/mL
E. coli [4]; same peptide concentration as PapMA-1
  Lowering of the MIC value of the antibiotics mixed with peptide compared with PapMA-1: twice to four times
